Source: patent publication US12473282B2, “Biphenyl fluorine double bond derivative, preparation method therefor, and pharmaceutical application thereof” (Abbisko Therapeutics Co., Ltd., priority 2020, dated 2025)

Test: Jurkat reporter gene cellular assay
Assay type: cell-based
Conditions: Homo sapiens; Jurkat/NF-κB-luc/PD1 + Raji-PD-L1 coculture, OKT3 1 μg/mL, 6 hrs, activation fold; read-out: Cell Activity EC50
Description: The effect of compounds of the examples of the present invention and positive compounds on the interaction between PD-1 and PD-L1 expressed on cell surfaces, and the related influence on T cell functions, were determined by a Jurkat reporter gene cellular assay.
Briefly, the reporter gene plasmid of NF-κB-luc and the plasmid of human PD-1 were transfected into Jurkat cells to establish a stably transfected cell line capable of stably expressing both PD-1 and NF-κB-Luc reporter genes; the expression level of PD-1 on the cell surface was confirmed by flow cytometry; and the expression of the reporter gene was confirmed via the response of the reporter gene stimulated by OKT-3 and Raiji cells.
In addition, the plasmid of human PD-L1 was transfected into Raji cells to obtain a cell line capable of stably expressing PD-L1. Jurkat/NF-κB-luc/PD1 cells and Raji-PD-L1 cells were then cocultured and stimulated with OKT-3. On this basis, the compounds were added, and the enhancement of the signal pathway of T cell activation by the inhibitory effect of the compounds on the interaction between PD-1 and PD-L1 was evaluated by readings of reporter gene responses. The specific experimental process was as follows: • 1. 30 μL of compound or antibody solution was added to each well of a white 96-well plate (corning, 3610) at different diluted concentrations, and 10 μL of OKT3 (Biolegend, 317326) was then added (the final concentration of OKT3: 1 μg/mL); • 2. 20 μL of Raji-PD-L1 cell suspension was added to each well with 5*10^4 cells for each well, and was incubated in an incubator for 20 min; • 3. 20 μL of Jurkat/NF-Kb-luc/PD-1 cell suspension was added to each well with 5*10^4 cells for each well, and well mixed, and 6 hrs later, Bright-glo (Promega, E2620) was applied and plates were read on Envision; • 4. The reading of each well treated with the compound was compared with the reading of each well treated with DMSO to obtain the activation fold of the compound; • 5. EC50 values of compounds and positive compounds of the examples of the present invention were determined by non-linear regression analysis of activation folds at different compound concentrations.

| Structure (SMILES) | EC50 |
| --- | --- |
| COc1cc(/C(F)=C/c2cccc(-c3cccc(NC(=O)c4nc5c(n4C)CCN(CCC46CCC(C(=O)O)(CC4)C6)C5)c3Cl)c2Cl)ncc1CN1CCC(O)(C(F)(F)F)C1 (stereo not drawn) [Example 61, (Z)-4-(2-(2-((2,2′-dichloro-3′-(2-fluoro-2-(5-((3-hydroxy-3-(trifluoromethyl)pyrrolidin-1-yl)methyl)-4-methoxypyridin-2-yl)vinyl)-[1,1′-biphenyl]-3-yl)carbamoyl)-1-methyl-1,4,6,7-tetrahydro-5H-imidazo [4,5-c]pyridin-5-yl)ethyl)bicyclo[2.2.1]heptane-1-carboxylic acid] | 522 nM |
| COc1cc(/C(F)=C/c2cccc(-c3cccc(NC(=O)c4nc5c(n4C)CCN(CCC46CCC(C(=O)O)(CC4)C6)C5)c3Cl)c2Cl)ncc1CN1CCC2(CC(O)C2)C1 (stereo not drawn) [Example 62, (Z)-4-(2-(2-((2,2′-dichloro-3′-(2-fluoro-2-(5-((2-hydroxy-6-azaspiro [3.4]octan-6-yl)methyl)-4-methoxypyridin-2-yl)vinyl)-[1,1′-biphenyl]-3-yl)carbamoyl)-1-methyl-1,4,6,7-tetrahydro-5H-imidazo[4,5-c]pyridin-5-yl)ethyl)bicyclo[2.2.1]heptane-1-carboxylic acid] | 117 nM |
| COc1cc(/C(F)=C/c2cccc(-c3cccc(NC(=O)c4nc5c(n4C)CCN(CCC46CCC(C(=O)O)(CC4)C6)C5)c3Cl)c2Cl)ncc1CN(C)C(C)C [Example 63, (Z)-4-(2-(2-((2,2′-dichloro-3′-(2-fluoro-2-(5-((isopropyl(methyl)amino)methyl)-4-methoxypyridin-2-yl)vinyl)-[1,1′-biphenyl]-3-yl)carbamoyl)-1-methyl-1,4,6,7-tetrahydro-5H-imidazo[4,5-c]pyridin-5-yl)ethyl)bicyclo[2.2.1]heptane-1-carboxylic acid] | 159 nM |
| COc1cc(/C(F)=C/c2cccc(-c3cccc(NC(=O)c4nc5c(n4C)CCN(CCC46CCC(C(=O)O)(CC4)C6)C5)c3Cl)c2Cl)ncc1CN1CCC(C)(C)C1 [Example 64, (Z)-4-(2-(2-((2,2′-dichloro-3′-(2-(5-((3,3-dimethylpyrrolidin-1-yl)methyl)-4-methoxypyridin-2-yl)-2-fluorovinyl)-[1,1′-biphenyl]-3-yl)carbamoyl)-1-methyl-1,4,6,7-tetrahydro-5H-imidazo[4,5-c]pyridin-5-yl)ethyl)bicyclo[2.2.1]heptane-1-carboxylic acid] | 113 nM |
| COc1cc(/C(F)=C/c2cccc(-c3cccc(NC(=O)c4nc5c(n4C)CCN(CCC46CCC(C(=O)O)(CC4)C6)C5)c3Cl)c2Cl)ncc1CN1CCCCC1 [Example 65, (Z)-4-(2-(2-((2,2′-dichloro-3′-(2-fluoro-2-(4-methoxy-5-(piperidin-1-ylmethyl)pyridin-2-yl)vinyl)-[1,1′-biphenyl]-3-yl)carbamoyl)-1-methyl-1,4,6,7-tetrahydro-5H-imidazo[4,5-c]pyridin-5-yl)ethyl) bicyclo[2.2.1]heptane-1-carboxylic acid] | 137 nM |
| COc1cc(/C(F)=C/c2cccc(-c3cccc(NC(=O)c4nc5c(n4C)CCN(CCC46CCC(C(=O)O)(CC4)C6)C5)c3Cl)c2Cl)ncc1CN1CC[C@@H](N(C)C)C1 [Example 66, (R,Z)-4-(2-(2-((2,2′-dichloro-3′-(2-(5-((3-(dimethylamino)pyrrolidin-1-yl)methyl)-4-methoxypyridin-2-yl)-2-fluorovinyl)-[1,1′-biphenyl]-3-yl)carbamoyl)-1-methyl-1,4,6,7-tetrahydro-5H-imidazo[4,5-c]pyridin-5-yl)ethyl)bicyclo[2.2.1]heptane-1-carboxylic acid] | 347 nM |
| COc1cc(/C(F)=C/c2cccc(-c3cccc(NC(=O)c4nc5c(n4C)CCN(CCC46CCC(C(=O)O)(CC4)C6)C5)c3Cl)c2Cl)ncc1CN1CCCC1(C)C [Example 67, (Z)-4-(2-(2-((2,2′-dichloro-3′-(2-(5-((2,2-dimethylpyrrolidin-1-yl)methyl)-4-methoxypyridin-2-yl)-2-fluorovinyl)-[1,1′-biphenyl]-3-yl)carbamoyl)-1-methyl-1,4,6,7-tetrahydro-5H-imidazo[4,5-c]pyridin-5-yl)ethyl)bicyclo[2.2.1]heptane-1-carboxylic acid] | 54.1 nM |
| COc1cc(/C(F)=C/c2cccc(-c3cccc(NC(=O)c4nc5c(n4C)CCN(CCC46CCC(C(=O)O)(CC4)C6)C5)c3Cl)c2Cl)ncc1CN1Cc2cccnc2C1 [Example 68, (Z)-4-(2-(2-((2,2′-dichloro-3′-(2-(5-((5,7-dihydro-6H-pyrrolo[3,4-b]pyridin-6-yl)methyl)-4-methoxypyridin-2-yl)-2-fluorovinyl)-[1,1′-biphenyl]-3-yl)carbamoyl)-1-methyl-1,4,6,7-tetrahydro-5H-imidazo [4,5-c]pyridin-5-yl)ethyl)bicyclo[2.2.1]heptane-1-carboxylic acid] | 954 nM |
| COc1cc(/C(F)=C/c2cccc(-c3cccc(NC(=O)c4nc5c(n4C)CCN(CCC46CCC(C(=O)O)(CC4)C6)C5)c3Cl)c2Cl)ncc1CN1CCO[C@@H](CO)C1 [Example 69, (R,Z)-4-(2-(2-((2,2′-dichloro-3′-(2-fluoro-2-(5-((2-(hydroxymethyl)morpholino)methyl)-4-methoxypyridin-2-yl)vinyl)-[1,1′-biphenyl]-3-yl)carbamoyl)-1-methyl-1,4,6,7-tetrahydro-5H-imidazo[4,5-c]pyridin-5-yl)ethyl)bicyclo[2.2.1]heptane-1-carboxylic acid] | 116 nM |
| COc1cc(/C(F)=C/c2cccc(-c3cccc(NC(=O)c4nc5c(n4C)CCN(CCC46CCC(C(=O)O)(CC4)C6)C5)c3Cl)c2Cl)ncc1CN1CCO[C@H](CO)C1 [Example 70, (S,Z)-4-(2-(2-((2,2′-dichloro-3′-(2-fluoro-2-(5-((2-(hydroxymethyl)morpholino)methyl)-4-methoxypyridin-2-yl)vinyl)-[1,1′-biphenyl]-3-yl)carbamoyl)-1-methyl-1,4,6,7-tetrahydro-5H-imidazo[4,5-c]pyridin-5-yl)ethyl)bicyclo[2.2.1]heptane-1-carboxylic acid] | 128 nM |
| COc1cc(/C(F)=C/c2cccc(-c3cccc(NC(=O)c4nc5c(n4C)CCN(CCC46CCC(C(=O)O)(CC4)C6)C5)c3Cl)c2Cl)ncc1CN1CC[C@@](C)(O)C1 [Example 71, (R,Z)-4-(2-(2-((2,2′-dichloro-3′-(2-fluoro-2-(5-((3-hydroxy-3-methylpyrrolidin-1-yl)methyl)-4-methoxypyridin-2-yl)vinyl)-[1,1′-biphenyl]-3-yl)carbamoyl)-1-methyl-1,4,6,7-tetrahydro-5H-imidazo[4,5-c]pyiidin-5-yl)ethyl)bicyclo[2.2.1]heptane-1-carboxylic acid] | 42.1 nM |
| COc1cc(/C(F)=C/c2cccc(-c3cccc(NC(=O)c4nc5c(n4C)CCN(CCC46CCC(C(=O)O)(CC4)C6)C5)c3Cl)c2Cl)ncc1CN1CC[C@](C)(O)C1 [Example 72, (S,Z)-4-(2-(2-((2,2′-dichloro-3′-(2-fluoro-2-(5-((3-hydroxy-3-methylyrrolidin-1-yl)methyl)-4-methoxypyridin-2-yl)vinyl)-[1,1′-biphenyl]-3-yl)carbamoyl)-1-methyl-1,4,6,7-tetrahydro-5H-imidazo[4,5-c]pyridin-5-yl)ethyl)bicyclo[2.2.1]heptane-1-carboxylic acid] | 116 nM |
| COc1cc(/C(F)=C/c2cccc(-c3cccc(NC(=O)c4nc5c(n4C)CCN(CCC46CCC(C(=O)O)(CC4)C6)C5)c3Cl)c2Cl)ncc1CN1CC[C@H](C(=O)O)C1 [Example 74, (S,Z)-1-((6-(2-(3′-(5-(2-(4-carboxybicyclo[2.2.1]heptan-1-yl)ethyl)-1-methyl-4,5,6,7-tetrahydro-1H-imidazo[4,5-c]pyridine-2-carboxamido)-2,2′-dichloro-[1,1′-biphenyl]-3-yl)-1-fluorovinyl)-4-methoxypyridin-3-yl)methyl)pyrrolidine-3-carboxylic acid] | 136 nM |
| COc1cc(/C(F)=C/c2cccc(-c3cccc(NC(=O)c4nc5c(n4C)CCN(CCC46CCC(C(=O)O)(CC4)C6)C5)c3Cl)c2Cl)ncc1CN1CC[C@](C)(C(=O)O)C1 [Example 76, (S,Z)-1-((6-(2-(3′-(5-(2-(4-carboxybicyclo[2.2.1]heptan-1-yl)ethyl)-1-methyl-4,5,6,7-tetrahydro-1H-imidazo[4,5-c]pyridine-2-carboxamido)-2,2′-dichloro-[1,1′-biphenyl]-3-yl)-1-fluorovinyl)-4-methoxypyridin-3-yl)methyl)-3-methylpyrrolidine-3-carboxylic acid] | 98.1 nM |
| COc1cc(/C(F)=C/c2cccc(-c3cccc(NC(=O)c4nc5c(n4C)CCN(CCC46CCC(C(=O)O)(CC4)C6)C5)c3Cl)c2Cl)ncc1CN1CC2CCC1C2 (stereo not drawn) [Example 77, (Z)-4-(2-(2-((3′-(2-(5-((2-azabicyclo[2.2.1]heptan-2-yl)methyl)-4-methoxypyridin-2-yl)-2-fluorovinyl)-2,2′-dichloro-[1,1′-biphenyl]-3-yl)carbamoyl)-1-methyl-1,4,6,7-tetrahydro-5H-imidazo[4,5-c]pyridin-5-yl)ethyl)bicyclo[2.2.1]heptane-1-carboxylic acid] | 54.4 nM |
